Measurements as given in publication PMC11555401 (2024).

Tests used:
[1] = system: aptamer-Seq.10-Cy5 (csa-DEHP aptamer) (DNA, aptamer) TTCCGGGCATACGTATCGAATGTTGTGAGCCGTGGGCTGC; assay: 1H NMR; conditions: complex formed in deionized water at 4 °C overnight, dialyzed; amino signals shift 1.9 to 2.3 ppm
[2] = system: DEHP aptamer-Seq.10 (FAM-labeled) (DNA, aptamer) TTCCGGGCATACGTATCGAATGTTGTGAGCCGTGGGCTGC; assay: graphene oxide fluorescence assay; conditions: 37 °C, 1.5 h incubation; graphene oxide:ssDNA mass ratio 100:1; nonlinear regression

`CCCCC(CC)COC(=O)c1ccccc1C(=O)OCC(CC)CCCC` (centres unmarked) was tested, and the binding [1] was “yes” and the Kd [2] was 70 nM.
